The source of these data is BindingDB's records for doi:10.1016/j.bmc.2012.10.010 (National Research Center, 2012).

The assay deals with Urokinase-type plasminogen activator (Homo sapiens) (UniProt P00749). The assay can be described thus: Binding affinity to uPA.
For `N#Cc1cc(-c2ccccc2)n(-c2ccc(Br)cc2)c1N`, the Ki turned out to be 3 pM. This counts as picomolar. In turn, `N#Cc1cc(-c2ccccc2)n(Cc2nc3ccccc3[nH]2)c1N` gave a Ki of 1 pM. The same measure for `N#Cc1cc(-c2ccccc2)n(-c2ccc(Cl)cc2)c1N`: 3 pM.
